Measurements taken from US20240132484A1, “BROAD SPECTRUM ANTIVIRAL COMPOUNDS TARGETING THE SKI COMPLEX” (priority 2020, published 2024).
Where “and” joins values, the source holds several entries; their conditions need not be identical. Equal values may be shown once. Entries after “also recorded” stand apart in the source; their conditions may differ. Read-outs that look alike come from different tables or passages of the source.

Experiments:
IAV RNA = assay: Multi-segment RT-PCR (M-RTPCR) of IAV segments in A549 cells; format: cell-based, influenza A virus
SARS-CoV-2 = format: cell-based
SARS-CoV = format: cell-based; settings: 24 h
IAV NS1 protein = format: cell-based, influenza A virus
IAV NS1 mRNA = format: cell-based, influenza A virus
MERS-CoV = assay: microbe, parasite or virus in culture; format: cell-based; settings: Middle East respiratory syndrome-related coronavirus, Huh-7, 24 h, read-out: IC50 against MERS-CoV
[1] = test system: SARS-CoV-2 mRNA (N, RdRp); format: cell-based; settings: two gene targets (N, RdRp)
Influenza virus = assay: organism not typed; format: cell-based, influenza A virus; settings: for time of addition: inhibition of IAV when drug added 2 h after infection: +2 h versus -2 h and 0 h; for IC50: A549, 24 h, read-out: IC50 against IAV; for antiviral activity against IAV infection: screening, A549 cells
WDR61 = WDR61 (Homo sapiens, UniProt Q9GZS3); assay: Surface Plasmon Resonance with pure WDR61 protein
SARS2 = format: cell-based, SARS-CoV-2; settings: for Percentage Infection Relative to Appropriate DMSO Control with Avg Background Subtraction: Greiner Celigo plates; for Infection Data, Average, Mean: average of Exp 1-3 (SMW475, SMW477, SMW478)
cells (nuclei count) = settings: for Toxicity Data, Average, Mean: average of Exp 1-3 (SMW475, SMW477, SMW478)
[2] = test system: Marburg virus Angola strain (MARV); assay: organism not typed; format: cell-based; settings: Huh-7, 48 h, read-out: IC50 against MARV
Huh7 cells = settings: antiviral concentrations, 24 h
[3] = test system: Ebola virus Makona strain (EBOV); assay: microbe, parasite or virus in culture; format: cell-based; settings: Zaire ebolavirus, Huh-7, 48 h, read-out: IC50 against EBOV
A549 cells = settings: antiviral concentrations, 24 h

With `COc1ccc(CNCCc2ccccc2C)c(OCC(O)CN2CCN(C)CC2)c1` (stereo not shown) [UMB18-2] the “IAV RNA amplified by M-RTPCR” value (IAV RNA) was “total loss of IAV RNA”, the “inhibition of SARS-CoV-2 virus production by TCID50” value (SARS-CoV-2) was “capable of inhibiting virus production; also recorded: less so” and the “inhibition of SARS-CoV” value (SARS-CoV; 10 μM) was “inhibition, but to a lesser extent”. For the same molecule, the “reduction in virus production” value (SARS-CoV; 50 μM) was 1 log, the “NS1 protein by western blot” value (IAV NS1 protein) was “lack of NS1 protein” and the “IAV NS1 mRNA” value (IAV NS1 mRNA) was “marked reduction in mRNA”. For the same molecule, the IC50 (MERS-CoV) was roughly 5 µM, the “SARS-CoV-2 mRNA production” value [1] was “capable of inhibiting SARS-CoV-2 mRNA production” and the “time of addition: inhibition of IAV when drug added 2 h after infection” value (Influenza virus) was “marked reduction in the level of inhibition”. For the same molecule, the IC50 (Influenza virus) was roughly 5 µM and the “antiviral activity against IAV infection” value (Influenza virus) was “capable of inhibiting IAV infection”.

With `CN(C)CCN(Cc1cocn1)Cc1cccs1` [SILCS35] the “direct binding to WDR61 by SPR” value (WDR61) was “binding directly to WDR61”, the “Percentage Infection Relative to Appropriate DMSO Control with Avg Background Subtraction” value (SARS2; Exp 1 (SMW475), 1 uM) was 90.30% and 94.24% and 95.59% and the “Percentage Infection Relative to Appropriate DMSO Control with Avg Background Subtraction” value (SARS2; Exp 1 (SMW475), 5 uM) was 93.18% and 101.74% and 91.54%. The “Percentage Infection Relative to Appropriate DMSO Control with Avg Background Subtraction” value (SARS2; Exp 1 (SMW475), 10 uM) was 105.47% and 116.87% and 111.43%, the “Percentage Infection Relative to Appropriate DMSO Control with Avg Background Subtraction” value (SARS2; Exp 1 (SMW475), 25 uM) was 79.86% and 56.98% and 87.77% and the “Percentage Infection Relative to Appropriate DMSO Control with Avg Background Subtraction” value (SARS2; Exp 1 (SMW475), 50 uM) was 83.26% and 106.28% and 78.51%. The “Percentage Infection Relative to Appropriate DMSO Control with Avg Background Subtraction” value (SARS2; Exp 2 (SMW477), 1 uM) was 131.21% and 119.10% and 117.97%, the “Percentage Infection Relative to Appropriate DMSO Control with Avg Background Subtraction” value (SARS2; Exp 2 (SMW477), 5 uM) was 138.25% and 128.36% and 147.80% and the “Percentage Infection Relative to Appropriate DMSO Control with Avg Background Subtraction” value (SARS2; Exp 2 (SMW477), 10 uM) was 155.83% and 113.76% and 119.79%. For the same molecule, the “Percentage Infection Relative to Appropriate DMSO Control with Avg Background Subtraction” value (SARS2; Exp 2 (SMW477), 25 uM) was 125.42% and 107.58% and 104.40%, the “Percentage Infection Relative to Appropriate DMSO Control with Avg Background Subtraction” value (SARS2; Exp 2 (SMW477), 50 uM) was 109.53% and 98.67% and 105.03% and the “Percentage Infection Relative to Appropriate DMSO Control with Avg Background Subtraction” value (SARS2; Exp 3 (SMW478), 1 uM) was 105.76% and 80.57% and 90.16%. For the same molecule, the “Percentage Infection Relative to Appropriate DMSO Control with Avg Background Subtraction” value (SARS2; Exp 3 (SMW478), 5 uM) was 134.19% and 78.79% and 94.59%, the “Percentage Infection Relative to Appropriate DMSO Control with Avg Background Subtraction” value (SARS2; Exp 3 (SMW478), 10 uM) was 151.59% and 95.94% and 77.50% and the “Percentage Infection Relative to Appropriate DMSO Control with Avg Background Subtraction” value (SARS2; Exp 3 (SMW478), 25 uM) was 126.08% and 121.76% and 139.01%. For the same molecule, the “Percentage Infection Relative to Appropriate DMSO Control with Avg Background Subtraction” value (SARS2; Exp 3 (SMW478), 50 uM) was 140.10% and 158.92% and 157.74%, the “Percentage Inhibition Average 1 μM” value (SARS2; SARS2, 1 μM) was −2.77% and the “Screening data (Relative infection to DMSO controls) Average 1 μM” value (SARS2; SARS2, 1 μM, 100=DMSO control) was 102.77. The “Percentage Inhibition Average 5 μM” value (SARS2; SARS2, 5 μM) was −12.05%, the “Screening data (Relative infection to DMSO controls) Average 5 μM” value (SARS2; SARS2, 5 μM, 100=DMSO control) was 112.05 and the “Percentage Inhibition Average 10 μM” value (SARS2; SARS2, 10 μM) was −16.46%. The “Screening data (Relative infection to DMSO controls) Average 10 μM” value (SARS2; SARS2, 10 μM, 100=DMSO control) was 116.46, the “Percentage Inhibition Average 25 μM” value (SARS2; SARS2, 25 μM) was −5.43% and the “Screening data (Relative infection to DMSO controls) Average 25 μM” value (SARS2; SARS2, 25 μM, 100=DMSO control) was 105.43. For the same molecule, the “Percentage Inhibition Average 50 μM” value (SARS2; SARS2, 50 μM) was −15.34%, the “Screening data (Relative infection to DMSO controls) Average 50 μM” value (SARS2; SARS2, 50 μM, 100=DMSO control) was 115.34 and the “Average (relative infection to DMSO over the 5 tested concentrations)” value (SARS2; SARS2, average over 1 to 50 uM, 100=DMSO control) was 110.41. For the same molecule, the “Infection Data, Average, Mean” value (SARS2; n 9, 1 uM) was 102.77%, the “Infection Data, Average, Mean” value (SARS2; n 9, 5 uM) was 112.05% and the “Infection Data, Average, Mean” value (SARS2; n 9, 10 uM) was 116.46%. For the same molecule, the “Infection Data, Average, Mean” value (SARS2; n 9, 25 uM) was 105.43%, the “Infection Data, Average, Mean” value (SARS2; n 9, 50 uM) was 115.34% and the “Relative cell count to DMSO controls, Average 1 μM” value (cells (nuclei count); 1 μM, toxicity data, 100=DMSO control) was 105.31. For the same molecule, the “Relative cell count to DMSO controls, Average 5 μM” value (cells (nuclei count); 5 μM, toxicity data, 100=DMSO control) was 100.64, the “Relative cell count to DMSO controls, Average 10 μM” value (cells (nuclei count); 10 μM, toxicity data, 100=DMSO control) was 89.77 and the “Relative cell count to DMSO controls, Average 25 μM” value (cells (nuclei count); 25 μM, toxicity data, 100=DMSO control) was 93.31. The “Relative cell count to DMSO controls, Average 50 μM” value (cells (nuclei count); 50 μM, toxicity data, 100=DMSO control) was 60.5, the “Toxicity Data, Average, Mean” value (cells (nuclei count); n 9, 1 uM) was 105.31% and the “Toxicity Data, Average, Mean” value (cells (nuclei count); n 9, 5 uM) was 100.64%. For the same molecule, the “Toxicity Data, Average, Mean” value (cells (nuclei count); n 9, 10 uM) was 89.77%, the “Toxicity Data, Average, Mean” value (cells (nuclei count); n 9, 25 uM) was 93.31% and the “Toxicity Data, Average, Mean” value (cells (nuclei count); n 9, 50 uM) was 60.50%. The “Relative cell count to DMSO controls, Average (for correlation analysis)” value (cells (nuclei count); average value over the 5 tested concentrations (1 to 50 uM)) was 89.91.

`COc1ccc(CNCCc2ccccc2F)c(OCC(O)CN2CCN(C)CC2)c1` (stereo not shown) [UMB18, 1-[2-({[2-(2-fluorophenyl)ethyl]amino}methyl)-5-methoxyphenoxy]-3-(4-methyl-1-piperazinyl)-2-propanol] was tested, and the IC50 [2] was roughly 16 µM, the “NS1 protein by western blot” value (IAV NS1 protein) was “lack of NS1 protein” and the “IAV NS1 mRNA” value (IAV NS1 mRNA) was “marked reduction in mRNA”. For the same molecule, the “toxicity by CellTiter-Glo assay” value (Huh7 cells) was “minimal toxicity”, the IC50 [3] was roughly 5 µM and the “toxicity by CellTiter-Glo assay” value (A549 cells) was “minimal toxicity”. The IC50 (MERS-CoV) was roughly 5 µM, the “10 μM treatment, Average” value (Influenza virus; 10 μM treatment, average of replicates) was 11250 and 1250 and 2000 and 18000 and the “10 μM treatment” value (Influenza virus; 10 μM treatment, replicate 2) was 12000 and 1000 and 35000. For the same molecule, the “10 μM treatment” value (Influenza virus; 10 μM treatment, replicate 3) was 1000 and 2000, the “10 μM treatment” value (Influenza virus; 10 μM treatment, replicate 4) was 5000 and 1000 and the “50 μM treatment Average” value (Influenza virus; 50 μM compound, average of replicates) was 1000 and 333.3 and 0 (2×). The “50 μM treatment” value (Influenza virus; 50 μM compound, replicate 1, DMSO (0.5%) control run per batch) was 0, the “50 μM treatment” value (Influenza virus; 50 μM compound, replicate 2) was 3000 and 0 (2×) and the “50 μM treatment (third value column)” value (Influenza virus; 50 μM compound, replicate 3) was 0 and 1000. For the same molecule, the “50 μM treatment (fourth value column)” value (Influenza virus; 50 μM compound, replicate 4) was 1000, the “time of addition: inhibition of IAV when drug added 2 h after infection” value (Influenza virus) was “marked reduction in the level of inhibition” and the IC50 (Influenza virus) was roughly 5 µM. The “antiviral activity against IAV infection” value (Influenza virus) was “showed antiviral activity against influenza”.
